Values of other authors, collected in patent US8865699B2, “Amino triazoles as PI3K inhibitors” (Cellzome Ltd., priority 2007, dated 2014).

Experiments:
[1] = test system: lymphocyte-dependent rheumatoid arthritis induced by direct collagen II injection; conditions: mouse, oral
[2] = test system: collagen II-antibody-induced arthritis; conditions: wildtype mice, oral
[3] = test system: MRL-lpr mouse model of systemic lupus erythematosus (SLE); conditions: intraperitoneal administration
[4] = test system: animal model of myocardial infarction; conditions: dosing after myocardial reperfusion (up to 3 hours after)

Compound | joint inflammation and damage [1] | clinical and histologic signs of arthritis [2] | CD4+ T-cell populations [3] | glomerulonephritis [3] | life span [3] | edema and inflammation in response to multiple mediators [4]
O=C1NC(=O)/C(=C\c2ccc3nccnc3c2)S1 [AS-605240] | decreased joint inflammation and damage | reduced clinical and histologic signs of collagen II-antibody-induced arthritis | reduced CD4+ T-cell populations | reduced glomerulonephritis | prolonged life span | –
Nc1nc(N)c2nc(-c3cccc(O)c3)c(-c3cccc(O)c3)nc2n1 [TG100-115] | – | – | – | – | – | potently inhibits edema and inflammation
